Biological target: T1, TakP (Cereibacter sphaeroides, UniProt Q3J1R2)
T1 construct: His6 (C); made in house; host or cells: E. coli BL21
Test: Tryptophan fluorescence quenching titration of ligand binding to TakP
Parameters: species or system Rhodobacter sphaeroides
Details: for Binding to purified proteins from the SmoM family (qualitative): purified proteins from the SmoM (TakP) family, stated as [15] and this study, method not specified
From the text: We overexpressed and purified TakP from Rhodobacter sphaeroides and confirmed its ability to bind a range of α-keto acids. A general feature of ESRs is that substrate binding is accompanied by a diminished fluorescence from some tryptophan residue(s) as a result of the conformational changes induced by the binding. […] This was accompanied by a shift of the emission peak: the difference spectrum between the unliganded and liganded (quenched) protein has its maximum around 345 nm, whereas the bulk fluorescence from the unliganded form peaks at 335 nm. […] There are 10 Trp residues in the TakP sequence. From the structural information describe below, it turned out that one of these Trp residues (Trp 215) is directly interacting with the ligand when present, so that its fluorescence may be strongly quenched as a result. Two others undergo a significant displacement during the open/closed transition, which may also affect their fluorescence properties. Clearly, the observed amplitude of the fluorescence quenching caused by ligand binding (~30%) implies that these sensitive residues have for some reason a larger relative contribution to the fluorescence emission than the other tryptophans of the protein.
Because of the high binding affinity of these, we had to use a sufficiently low protein concentration to obtain an accurate determination of the dissociation constant, Kd. If the protein concentration is below the Kd, allowing the presence of a significant fraction of free substrate during the titration, the Kd can be determined from a fit of the equation:
F/F0=1−ΔF×[PL]=1−ΔF×0.5(Kd+[P0]+[L0]−(Kd+[P0]+[L0])^2−4[P0][L0]) MathType@MTEF@5@5@+=feaafiart1ev1aaatCvAUfKttLearuWrP9MDH5MBPbIqV92AaeXatLxBI9gBaebbnrfifHhDYfgasaacH8akY=wiFfYdH8Gipec8Eeeu0xXdbba9frFj0=OqFfea0dXdd9vqai=hGuQ8kuc9pgc9s8qqaq=dirpe0xb9q8qiLsFr0=vr0=vr0dc8meaabaqaciaacaGaaeqabaqabeGadaaakeaacqWGgbGrcqGGVaWlcqWGgbGrdaWgaaWcbaGaeGimaadabeaakiabg2da9iabigdaXiabgkHiTiabfs5aejabdAeagjabgEna0kabcUfaBjabdcfaqjabdYeamjabc2faDjabg2da9iabigdaXiabgkHiTiabfs5aejabdAeagjabgEna0kabicdaWiabc6caUiabiwda1maabmaabaGaem4saS0aaSbaaSqaaiabdsgaKbqabaGccqGHRaWkcqGGBbWwcqWGqbaudaWgaaWcbaGaeGimaadabeaakiabc2faDjabgUcaRiabcUfaBjabdYeamnaaBaaaleaacqaIWaamaeqaaOGaeiyxa0LaeyOeI0YaaOaaaeaacqGGOaakcqWGlbWsdaWgaaWcbaGaemizaqgabeaakiabgUcaRiabcUfaBjabdcfaqnaaBaaaleaacqaIWaamaeqaaOGaeiyxa0Laey4kaSIaei4waSLaemitaW0aaSbaaSqaaiabicdaWaqabaGccqGGDbqxcqGGPaqkdaahaaWcbeqaaiabikdaYaaakiabgkHiTiabisda0iabcUfaBjabdcfaqnaaBaaaleaacqaIWaamaeqaaOGaeiyxa0Laei4waSLaemitaW0aaSbaaSqaaiabicdaWaqabaGccqGGDbqxaSqabaaakiaawIcacaGLPaaaaaa@7441@
Here, F is the fluorescence amplitude and F0 its value in the absence of ligand. Δ F is the normalized amplitude of the saturated quenching, [PL] is the concentration of liganded protein, [P0] and [L0] are the concentrations of the total protein and ligand, respectively. The protein concentration was determined from its 280 nm absorbance and pertains here to the monomeric unit (see below).
Fluorescence spectroscopy was performed using a Varian Cary Eclipse spectrofluorimeter with an excitation wavelength of 290 nm. The emission spectra were recorded between 300 and 500 nm. Ligand binding was determined from the partial quenching of this fluorescence emission. To gain a more accurate determination of the dissociation constant, the protein concentration was lowered down to 50 nM (in 50 mM Tris/HCl, pH 7) and the amplitude of the fluorescence emission was computed from an integration of the emission over the 315 nm to 360 nm range.

T1 sequence (Q3J1R2 27-365): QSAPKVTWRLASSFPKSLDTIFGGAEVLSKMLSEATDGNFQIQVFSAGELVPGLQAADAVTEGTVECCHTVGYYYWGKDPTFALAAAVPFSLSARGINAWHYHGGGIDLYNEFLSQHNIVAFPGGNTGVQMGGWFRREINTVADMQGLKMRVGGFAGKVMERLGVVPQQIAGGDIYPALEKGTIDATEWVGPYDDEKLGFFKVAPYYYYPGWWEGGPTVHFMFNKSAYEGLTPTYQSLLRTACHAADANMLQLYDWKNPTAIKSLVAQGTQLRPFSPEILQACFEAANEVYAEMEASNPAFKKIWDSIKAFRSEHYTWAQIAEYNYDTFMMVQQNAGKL

Row | SMILES | Kd [nM] | other results
1 | CC(C)CC(=O)C(=O)O [4-Methyl-2-Oxovalerate] | 720 ± 55 | 
2 | CCC(=O)C(=O)O [Oxobutyrate, oxobutyrate] | 43 ± 4 | 
3 | CCCC(=O)C(=O)O [Oxovalerate, oxovalerate] | 18 ± 3 | 
4 | CC(=O)C(=O)O [Pyruvate, pyruvate] | 270 ± 20 | 
5 | OC[C@@H](O)[C@@H](O)[C@H](O)[C@H](O)CO [mannitol] |  | Binding to purified proteins from the SmoM family (qualitative): neither bind
6 | OC[C@@H](O)[C@@H](O)[C@H](O)[C@@H](O)CO [sorbitol] |  | Binding to purified proteins from the SmoM family (qualitative): neither bind
7 | O=C(O)CCC(=O)C(=O)O [α-ketoglutarate] |  | Binding to TakP (qualitative) (fluorescence quenching titration): No binding

From publication PMC1839085, “Crystal structures of an Extracytoplasmic Solute Receptor from a TRAP transporter in its open and closed forms reveal a helix-swapped dimer requiring a cation for α-keto acid binding” (BMC Structural Biology, 2007)
